Results from patent publication US5773236A, “Assay for glutathiane transferase using polyhaloaryl-substituted reporter molecules” (Molecule Probes, Inc., priority 1997, dated 1998).

Columns and labels:
β-D-galactosidase = experiment: Detection of β-D-galactosidase on a membrane blot (Example 64); type: biochemical; details: nitrocellulose, room temperature, 1 hour plus 30 minutes
Procedure: The reagents used are: 1) Compound 9, 5 mM in ethanol; 2) β-D-galactosidase, 10 mg/mL in 0.05M potassium phosphate, pH 7; 3) Enzyme diluent: 0.01M Tris, 0.01M MgCl2, 0.01M mercaptoethanol, 0.01M NaCl, 1% BSA, pH 7.5; 4) 1% BSA in PBS, pH 7.2; 5) Reaction buffer: 0.3M potassium phosphate, 3 mM MgCl2, pH 7.5; 6) Wash buffer: 20 mM Tris, 137 mM NaCl, 0.5% Tween 20, pH 7.5. A stock solution of β-galactosidase is diluted in enzyme diluent to obtain solutions with the following concentrations: 1 μg/μL, 0.1 μg/μL, 0.01 μg/μL, 1 ng/μL, 0.1 ng/μL and 0 ng/μL. 1 μL of each diluted solution is spotted on a two nitrocellulose membranes (1"×1"), pore size 0.45 μM, and dried immediately by blowing argon on the membranes. One of the membranes is blocked by treatment with 1% BSA in PBS for 20 minutes at room temperature. The following mixture is prepared: 4.95 mL of reaction buffer+[…] of Compound 9 stock solution. 2 mL of this solution is added to each of the blots and incubation is carried out at room temperature for 1 hour. The blots are washed once with 2 mL of wash buffer. 0.5 mL of the mixture described above is once again added to the blots and incubation is carried out at room temperature for 30 minutes. The blots are allowed to dry and an image is obtained by illuminating with reflected UV light at 254 nm. […]

[1] = system: CRE BAG 2 cells (lacZ positive); experiment: β-galactosidase / lacZ detection in cells by microscopy, lacZ positive (Example 61); type: cell-based; details: 50 nM, 37° C., 35 minutes
Procedure: (§1) NIH-3T3 cells (lacZ negative) and CRE BAG 2 cells (lacZ positive) are obtained from American Type Culture Collection Co., Rockville, Md. They are grown in a humidified atmosphere of 5% CO2 in D-MEM supplemented with 10% bovine calf serum, 50 μg/mL gentamycin, 300 μg/mL L-glutamine and 10 mM HEPES, pH 7.4. A 50 μM stock solution of Compound 9 is prepared in water: dimethylformamide (DMF) (1:1). NIH-3T3 and CRE BAG 2 cells are trypsinized, washed and suspended in D-MEM containing 10% BCS. 10 μL of the cell suspension is added to 0.989 mL of the same medium. 1 μL of the 50 μM substrate solution is added to the cells to obtain a final concentration of 50 nM. Incubation is carried out at 37° C. for 35 minutes. Cells are centrifuged to form a pellet, supernatant is discarded and cells are resuspended in D-MEM with 10% BCS. Cells are mounted on slides and observed by fluorescence microscopy.

β-galactosidase = experiment: Glycosidase analysis in vitro (Example 60); type: biochemical; details: substrate 333 μM, room temperature, 20 minutes
Procedure: The stock reagents required are: 1) Compound 9 (Example 7) 5 mM in ethanol; 2) Reaction buffer: 0.3M potassium phosphate, 3 mM MgCl2 pH 7.5; 3) β-galactosidase (Boehringer-Mannheim), dissolved at 10 mg/mL in 0.05M potassium phosphate, pH 7; 4) Enzyme diluent: 0.01M Tris HCl, 0.01M MgCl2, 0.01M NaCl, 0.01M β-mercaptoethanol, pH 7.5. 130 μL of the reaction buffer is added to a series of rows and columns in a microplate. To each of the wells with reaction buffer is added 10 μL of the substrate solution. The enzyme stock solution is diluted to 1 mg/mL, 0.1 mg/mL, 10 μg/mL, 1 μg/mL, 0.1 μg/mL and 0 μg/mL. To the wells containing reaction buffer and substrate, 10 μL of each of the different concentration enzyme solutions is added. The wells containing 0 μg/mL enzyme serve as controls. The plate is allowed to incubate at room temperature for 20 minutes. Fluorescence of each well is determined using a 485 nm excitation filter, a 530 nm emission filter and gain setting of 40. Using the above conditions, as little as 6.7 ng/mL enzyme can be detected using the substrate at 333 μM concentration. The fluorescence response is linear until the enzyme concentration reaches ~6.7 μg/mL.

[2] = system: NIH-3T3 cells (lacZ negative); experiment: β-galactosidase activity detection in cells by microscopy, lacZ negative (Example 61); type: cell-based; details: 50 nM, 37° C., 35 minutes
Procedure: as §1

O=C1OC2(c3ccc(O[C@@H]4O[C@H](CO)[C@H](O)[C@H](O)[C@H]4O)cc3Oc3cc(O[C@@H]4O[C@H](CO)[C@H](O)[C@H](O)[C@H]4O)ccc32)c2ccc(NC(=O)c3c(F)c(F)c(F)c(F)c3F)cc21 [Compound 9, 5-(pentafluorobenzoylamino)fluorescein di-β-D-galactopyranoside]
amount of enzyme detected (β-D-galactosidase): ~ 100 ng | staining of cells, fluorescence microscopy [1]: green fluorescent lysosomes with well-stained green fluorescent cytoplasm | enzyme concentration up to which fluorescence response is linear (β-galactosidase): ~ 6.7 μg/mL | lowest enzyme concentration detected (β-galactosidase): 6.7 ng/mL | staining of cells, fluorescence microscopy [2]: green fluorescent lysosomes with very little cytoplasmic background
